Laboratory results reported in patent publication US12729225B2, “Non-canonical SWI/SNF complex and uses thereof” (Dana-Farber Cancer Institute, Inc., priority 2018, dated 2026).
“And” between values parts separate entries of the source, which are not always exact repeats. Equal entries are not always repeated. “Also recorded” adds a separate entry of the source.

What was measured:
[1] = tested on: SYO-1 synovial sarcoma cells; assay: Proliferation curves (cell counts, Vi-CELL XR) in SYO-1 cells; assay type: cell-based, human; settings: for cell count: three replicates
Description: (§1) HEK-293T, G401, TTC1240, ESX, IMR-90, BJ Fibroblast, CRL7250, and NCIH-1437 cells were grown in DMEM (Gibco®) supplemented with 10% FBS, 1% GlutaMAX™ (Gibco®), and 1% penicillin-streptomycin (Gibco®). ES-2 cells were grown in McCoy's 5A (Gibco®) supplemented with 10% FBS, 1% GlutaMA™ (Gibco®), and 1% penicillin-streptomycin (Gibco®). EoL-1 and MOLM-13 were grown in RPMI (Gibco) supplemented with 10% FBS, 1% GlutaMAX™ (Gibco®), and 1% penicillin-streptomycin (Gibco®). RD were cultured in DMEM (Gibco®) supplemented with 10% FBS. HCT116 were grown in McCoy's 5A (Gibco®) supplemented with 10% FBS. Calu-6 were grown in EMEM (ATCC® 30-2003) supplemented with 10% FBS. SYO-1 was grown in DMEM without sodium pyruvate (Gibco®) supplemented with 10% FBS, 1% GlutaMAX™ (Gibco®), and 1% penicillin-streptomycin (Gibco®).
ShRNA or gene delivery vectors, psPAX2, and pMD2.g were transfected into […] cells at a ratio of 4:3:1 using PEI (Polysciences, Inc.). Media was filtered through 0.4 micron filters 72 h post transfection and lentiviral particles were concentrated at 20,000 rpm for 2.5 h at 4° C. Lentiviral particles were resuspended in 200 μl PBS and cells were transduced using 1:1000 polybrene (Santa Cruz Biotechnology, cat. sc-134220). Two days post-infection, cells were selected with 2 μg/mL puromycin or 10 μg/mL blasticidin.
(§2) 25,000-40,000 cells were plated per well of 12 well plates, or 50,000-60,000 per 10 cm plate, depending on cell line. Cell counts were performed in biological triplicate using a Vi-CELL™ XR Cell Counter (Beckman Coulter) on days indicated.

[2] = tested on: ESX epithelioid sarcoma (SMARCB1-intact) cells; assay: Proliferation curves (cell counts) in ESX cells; assay type: cell-based, human; settings: dBRD9 250 nM vs DMSO
Description: as §1, §2

[3] = tested on: TTC1240 malignant rhabdoid tumor cells; assay: RNA-seq gene expression in TTC1240 cells; assay type: cell-based, human; settings: TTC1240, 7 days of 250 nM dBRD9
Description: (§3) RNA was collected from 2 million cells per condition, in biological duplicate, using the RNeasy® Mini Kit (QIAGEN) according to manufacturer's protocol.
(§4) Library preparation and sequencing of ChIP DNA and RNA was performed by the Molecular Biology Core Facilities at the Dana-Farber Cancer Institute (75 bp single end on Illuminia Nextseq 500).
(§5) RNA-seq data reads were mapped using default parameters to hg19 using STAR (Dobin, et al. (2013) Bioinformatics 29:15-21) version 2.5.2a.
(§6) RPKM values were calculated using GFOLD version 1.1.4 (Feng et al. (2012) Bioinformatics 28:2782-2788). Unless otherwise noted, log 2 fold change and Bonferri-corrected p values were generated using DESEQ2 v1.16.1, with reads mapped using RSUBREAD (Liao et al. (2013) Nucleic Acids Res. 41:e108) v1.26.1. […] All RNA-seq experiments were performed in biological replicate. Quality control metrics are available in Table 7.
Genes associated with MRT superenhancers were downloaded from Chun et al. (Chun et al. (2016) Cancer Cell 29:394-406). Differential expression files of genes between MRT and normal tissues were downloaded from Chun et al., genes that were overexpressed in MRT with Bonferroni-adjusted p-value<0.01 were considered overexpressed in MRT.

G401 MRT cells = assay: Proliferation curves (cell counts) in G401 cells; assay type: cell-based, human; settings: for Proliferation curve data for FIG. 5K (G401): three replicates
Description: as §1, §2

[4] = tested on: SYO-1 synovial sarcoma cells; assay: RNA-seq gene expression profiling in SYO-1 cells; assay type: cell-based, human; settings: SYO-1, dBRD9 (6 day)
Description: as §3, §4, §5, §6
(§7) The input for Gene Set Enrichment Analysis (GSEA) (Subramanian et al. (2005) Proc. Nat. Acad. Sci. U.S.A 102:15545-15550) was created by calculating the log 2 fold change between the mean RPKM of the replicates in each condition+1. […] GSEA Preranked was run over these files with default settings.

SMARCA4 [5] = assay: ChIP-seq SMARCA4 occupancy in MOLM-13 cells; assay type: cell-based, human; settings: MOLM13 (BAF-intact), dBRD9
Description: (§8) Cells were fixed in 1% formaldehyde (Sigma Aldrich, F8775) for 10 min at 37° C. and quenched with 125 mM glycine for 5 min at 37° C. Cells were subsequently washed with cold PBS and stored at −80° C. until use. 10M cells per ChTP were used for EoL-1, MOLM-13, and Jurkat cell lines, and 5M cells per ChIP were used for SYO-1 and TTC1240 cell lines. Nuclei were extracted and chromatin was sonicated using the adaptive focused acoustics technology with a Covaris sonicator. Sonicated chromatin was used in immunoprecipitation reactions with indicated antibodies (Table 5) overnight followed by capture using Protein G Dynabeads (Thermo Fisher). For ChIP-seq using spike-in chromatin, 15 ng of spike-in Drosophila chromatin (Active Motif, cat #530830) was added to each sample with 2 μg of spike-in antibody (Active Motif, cat #61686). […]
(§9) For alignment of ChIP-seq data, Bowtie2, version 2.1.0 (Langmead & Salzberg (2012) Nat. Methods 9:357-359) was used to map reads to the hg19 human reference genome, using the parameter −k l.
MACS2 (Zhang et al. (2008) Genome Biol. 9:R137) version 2.1.0 was used to call peaks against input with a cutoff of q=0.001. […] For TTC1240 SMARCA4 tracks shown, the bedGraph file values were multiplied by the spike-in normalization ratios calculated as described above.

MOLM-13 cells = assay: RNA-seq gene expression in MOLM-13 cells; assay type: cell-based, human; settings: MOLM-13 (BAF-intact), 6 days of dBRD9
Description: as §3, §4, §5, §6

SMARCA4 [6] = assay: ChIP-seq SMARCA4 occupancy in TTC1240 cells (spike-in normalized, DiffBind); assay type: cell-based, human; settings: TTC1240, dBRD9 250 nM vs DMSO
Description: as §8, with “Fisher).” for “Fisher). For ChIP-seq using spike-in chromatin, 15 ng of spike-in Drosophila chromatin (Active Motif, cat #530830) was added to each sample with 2 μg of spike-in antibody (Active Motif, cat #61686).”
as §9
For spike-in normalization, Drosophila DNA was aligned to the dm3 genome using Bowtie2 version 2.1.0 with the parameter −k l. Duplicated reads were removed using samtools rmdup with the −b option. (SAMtools v1.3.1) As per manufacturer instructions, normalization ratios were calculated using the ratio of the total number of non-redundant mapped reads in each sample in comparison to the sample with the fewest non-redundant mapped reads. […]

[7] = tested on: CRL7250 human fibroblast cells; assay: RNA-seq of SS18-SSX-mediated gene activation in CRL7250 fibroblasts; assay type: cell-based; settings: CRL7250 fibroblasts expressing V5-SS18-SSX1, with dBRD9
Description: as §3, §4, §5, §6, §7

[8] = tested on: TTC1240 malignant rhabdoid tumor cells; assay: Proliferation curves (cell counts) in TTC1240 cells; assay type: cell-based, human; settings: for Proliferation curve data for FIG. 6H (TTC1240): three replicates
Description: as §1, §2

With `COc1cc(-c2cn(C)c(=O)c3cnccc23)cc(OC)c1CN(C)CC(=O)NCCOCCOCCNc1cccc2c1C(=O)N(C1CCC(=O)NC1=O)C2=O` (centres unmarked) [dBRD9, 2-((2,6-dimethoxy-4-(2-methyl-1-oxo-1,2-dihydro-2,7-naphthyridin-4-yl)benzyl)(methyl)amino)-N-(2-(2-(2-((2-(2,6-dioxopiperidin-3-yl)-1,3-dioxoisoindolin-4-yl)amino)ethoxy)ethoxy)ethyl) acetamide] the cell count ([1]; Day 0, second block) was 0.05, the cell count ([1]; Day 1, first block) was 0.03089 and 0.03603 and 0.03282 and the cell count ([1]; Day 4, first block) was 0.1506 and 0.1319 and 0.1377. For the same molecule, the cell count ([1]; Day 4, second block) was 0.171 and 0.18 and 0.216, the cell count ([1]; Day 6, first block) was 0.2722 and 0.3153 and 0.2555 and the cell count ([1]; Day 7, second block) was 0.36 (2×) and 0.42. The cell count ([1]; Day 8, first block) was 0.5521 and 0.5701 and 0.5147, the cell count ([1]; Day 10, second block) was 1.17 and 1.38 and 1.14 and the cell count ([1]; Day 13, second block) was 2.3 and 2.21 and 2.13. The “cell proliferation upon dBRD9 treatment” value ([1]; SYO-1, dBRD9 500 nM (FIG. 6F) vs DMSO) was “attenuation of cell proliferation; also recorded: proliferative attenuation”, the “reduced proliferation upon dBRD9 treatment” value [2] was “did not” and the “expression of JUND, VGF, ID3, HOXC9, CREB3L1” value [3] was “significantly downregulated”. The “Proliferation curve data for FIG. 5K (G401)” value (G401 MRT cells; Day 1, first block) was 0.04568 and 0.02188 and 0.02252, the “Proliferation curve data for FIG. 5K (G401)” value (G401 MRT cells; Day 1, second block) was 0.1114 and 0.1126 and 0.1094 and the “Proliferation curve data for FIG. 5K (G401)” value (G401 MRT cells; Day 3, first block) was 0.1287 (2×) and 0.1558. The “Proliferation curve data for FIG. 5K (G401)” value (G401 MRT cells; Day 3, second block) was 0.48 and 0.5096 and 0.442, the “Proliferation curve data for FIG. 5K (G401)” value (G401 MRT cells; Day 5, first block) was 0.453 and 0.5533 and 0.4292 and the “Proliferation curve data for FIG. 5K (G401)” value (G401 MRT cells; Day 5, second block) was 1.005 and 1.058 and 0.9696. The “Proliferation curve data for FIG. 5K (G401)” value (G401 MRT cells; Day 7, first block) was 0.7669 and 0.9773 and 0.8281, the “Proliferation curve data for FIG. 5K (G401)” value (G401 MRT cells; Day 7, second block) was 1.468 and 1.621 and 1.556 and the “proliferation upon dBRD9 treatment” value (G401 MRT cells; G401 (SMARCB1-deficient MRT), dBRD9 250 nM vs DMSO) was “reduced proliferation”. The “expression of genes closest to fusion-dependent sites” value [4] was “did not change”, the “loss in SMARCA4 occupancy (ChIP-seq)” value (SMARCA4 [5]) was “did not exhibit similar loss” and the “preferential downregulation of genes enriched for dependencies (CERES)” value (MOLM-13 cells) was “did not result in preferential downregulation”. The “SMARCA4 occupancy (ChIP-seq)” value (SMARCA4 [6]) was “significant decrease”, the SS18-SSX-mediated gene activation [7] was “did not attenuate” and the “Proliferation curve data for FIG. 6H (TTC1240)” value ([8]; Day 1, first block) was 0.01352 and 0.01738 and 0.01416. For the same molecule, the “Proliferation curve data for FIG. 6H (TTC1240)” value ([8]; Day 1, second block) was 0.05469 (2×) and 0.03282, the “Proliferation curve data for FIG. 6H (TTC1240)” value ([8]; Day 3, first block) was 0.03024 and 0.04118 and 0.0296 and the “Proliferation curve data for FIG. 6H (TTC1240)” value ([8]; Day 3, second block) was 0.2709 and 0.2793 and 0.2619. The “Proliferation curve data for FIG. 6H (TTC1240)” value ([8]; Day 5, first block) was 0.05791 and 0.06311 and 0.0534, the “Proliferation curve data for FIG. 6H (TTC1240)” value ([8]; Day 5, second block) was 0.9207 and 0.9419 and 0.9374 and the “Proliferation curve data for FIG. 6H (TTC1240)” value ([8]; Day 7, first block) was 0.1853 and 0.2336 and 0.1628. The “Proliferation curve data for FIG. 6H (TTC1240)” value ([8]; Day 7, second block) was 2.184 and 2.334 and 2.133 and the “proliferation upon dBRD9 treatment” value ([8]; TTC1240 (SMARCB1-deficient MRT), dBRD9 250 nM vs DMSO) was “reduced proliferation”.
